Measured values taken from patent US20110143948A1, “MOLECULAR SIGNATURES AND BIOMARKERS ASSOCIATED WITH MELANOMA AND METHODS OF USE THEREOF” (priority 2008, published 2011).

System: ncRNAs (SEQ ID NO 28-89)
Assay: ncRNA arrays of melanocytes, keratinocytes, normal skin, melanoma cell lines and patient samples
Set-up: species or system human
Conditions: for ncRNA array expression, patient 2: melanoma patient 2 sample compared to normal skin; for ncRNA array expression, patient 3: melanoma patient 3 sample compared to normal skin; for ncRNA array expression, patient 4: melanoma patient 4 sample compared to normal skin; for ncRNA array expression, patient 5: melanoma patient 5 sample compared to normal skin; for ncRNA array expression, patient 6: melanoma patient 6 sample compared to normal skin; for ncRNA array expression, patient 7: melanoma patient 7 sample compared to normal skin; for ncRNA array expression, patient 8: melanoma patient 8 sample compared to normal skin; for ncRNA array expression, patient 9: melanoma patient 9 sample compared to normal skin; for ncRNA array expression, patient 10: melanoma patient 10 sample compared to normal skin; for ncRNA array expression, patient 19: melanoma patient 19 sample compared to normal skin; for ncRNA array expression, patient 20: melanoma patient 20 sample compared to normal skin; for ncRNA array expression, patient 21: melanoma patient 21 sample compared to normal skin; for ncRNA array expression, patient 22: melanoma patient 22 sample compared to normal skin; for ncRNA array expression, patient 23: melanoma patient 23 sample compared to normal skin; for ncRNA array expression, patient 24: melanoma patient 24 sample compared to normal skin; for ncRNA array expression, patient 25: melanoma patient 25 sample compared to normal skin; for ncRNA array expression, patient 26: melanoma patient 26 sample compared to normal skin; for ncRNA array expression, patient 27: melanoma patient 27 sample compared to normal skin; for ncRNA array expression, patient 28: melanoma patient 28 sample compared to normal skin; for ncRNA array expression, patient 29: melanoma patient 29 sample compared to normal skin; for ncRNA array expression, patient 30: melanoma patient 30 sample compared to normal skin
Experimental: An ncRNA array platform that contains over 10,000 putative (>200 nt) ncRNAs including most of the known ncRNAs in mouse and human was conducted to evaluate ncRNAs within melanoma. Lack of coding potential was estimated by an algorithm that scores various characteristics of protein-coding genes, including open reading frame length, synonymous/non-synonymous base substitution rates and similarity to known proteins. These arrays provide the first generation of tools designed to analyze the dynamic expression of a large subset of ncRNAs in human and mouse and to identify candidate genes for more detailed functional analysis. In addition to the ncRNA content, probes targeting mRNA content from RefSeq are also included, allowing discovery of coordinated expression with associated protein-coding genes. The result of these assays is a list of ncRNA genes (i.e. SEQ ID NO 28-89) and maps of their sequence boundaries. We have profiled total RNA isolated from melanocytes, keratinocytes, normal human skin, melanoma cell lines and melanoma patient samples to identify differentially expressed ncRNAs in cell lines and tissues. ncRNAs expression in all tested samples were compared to either melanocytes or normal skin. We have identified a group of ncRNAs that are specific for (a) melanocytes (b) Keratinocytes (c) Melanoma cell lines (d) Melanoma patients. […] Probe DNA sequences for this array include: AF086032 (SEQ ID NO 107) […] BC071821 (SEQ ID NO 108) […] C AK130193 (SEQ ID NO 109) […] AL109719 (SEQ ID NO 110) […] AF085888 (SEQ ID NO 111) […] T BC033879 (SEQ ID NO 112) […] AA AK024556 (SEQ ID NO 113) […] Probe nomenclature is standard genebank IDs given by NCBI and other organizations.
Keratinocytes specific signatures were subtracted and resultant ncRNAs were validated by qRT-PCR and Northern blots. Results point out the presence of a group of melanoma specific ncRNAs (i.e. SEQ ID NO 28-89).

Row | Substance | ncRNA array expression, patient 2 | ncRNA array expression, patient 3 | ncRNA array expression, patient 4 | ncRNA array expression, patient 5 | ncRNA array expression, patient 6 | ncRNA array expression, patient 7 | ncRNA array expression, patient 8 | ncRNA array expression, patient 9 | ncRNA array expression, patient 10 | ncRNA array expression, patient 19 | ncRNA array expression, patient 20 | ncRNA array expression, patient 21 | ncRNA array expression, patient 22 | ncRNA array expression, patient 23 | ncRNA array expression, patient 24 | ncRNA array expression, patient 25 | ncRNA array expression, patient 26 | ncRNA array expression, patient 27 | ncRNA array expression, patient 28 | ncRNA array expression, patient 29 | also measured
1 | SEQ ID NO 42 (TAGACATAGGTTAGAGGGGGAACAGTGCTTAAAATTCCATGGAACTAAGATTTTTTTTAT; listed as DNA, chemistry not given here; listed as Homo sapiens) | −1.5031 | −1.941 | −1.837 | −1.916 | −1.445 | −1.996 | −2.073 | −1.562 | −0.8067 | −2.231 | −1.775 | −1.59 | −1.26 | −0.1085 | −1.66 | −1.5976 | −1.684 | −1.038 | −1.339 | −0.5812 | ncRNA array expression, patient 30: 1.333
2 | SEQ ID NO 43 (CTTAATCCACATTTGTTTTGAATTTTTCTGATTCCTATAGTACCATACTCTGATGCCTAT; listed as DNA, chemistry not given here; listed as Homo sapiens) | −1.3 | −1.272 | −1.462 | −1.269 | −1.488 | −1.541 | −1.511 | −1.226 | −1.371 | −1.531 | −1.239 | −1.321 | −1.451 | −1.442 | −1.2517 | −1.544 | −1.396 | −1.339 | −1.387 | −1.366 | ncRNA array expression, patient 30: −0.1449
3 | SEQ ID NO 44 (AGCCAACTCACGCTTAGGGAGAACTCATACCGCCTAAATATAAAGGCAATTATATATATA; listed as DNA, chemistry not given here; listed as Homo sapiens) | −1.843 | −1.705 | −1.679 | −1.807 | −1.08 | −1.932 | −2.019 | −1.861 | −0.3103 | −1.83 | −1.651 | −1.7 | −1.029 | −1.95 | −1.768 | −1.979 | −1.501 | −1.744 | −1.679 | −1.809 | ncRNA array expression, patient 30: 0.9814
4 | SEQ ID NO 45 (ATTTAGAGAACATTTAAATCTGTAAGGAAGAAAATAATAACGACTCACAATTACATCATT; listed as DNA, chemistry not given here; listed as Homo sapiens) | −1.688 | −1.56 | −1.5912 | −1.519 | −0.7528 | −0.8782 | −2.042 | −1.8261 | 1.065 | −0.8583 | −1.797 | −1.759 | −1.25 | 0.2281 | −1.588 | −2.096 | −2.174 | −1.86 | −2.069 | −1.422 | ncRNA array expression, patient 30: 0.8792
5 | SEQ ID NO 46 (CTATTGGAGTGCATATAAATTCTTGATAGCACCAGTTCTCAAATATGAGGTGTTAAAAAC; listed as DNA, chemistry not given here; listed as Homo sapiens) | 0.198 | 0.6718 | 1.187 | 0.9853 | 0.04368 | 0.7142 | 1.688 | 5.175 | 1.916 | 2.172 | 0.395 | 0.7531 | −0.4275 | 0.6081 | 0.8675 | 1.428 | 2.919 | 1.824 | 1.253 | 2.278 | ncRNA array expression, patient 30: 0.4452
6 | SEQ ID NO 47 (GTATTTGTAATATTTGATTTGCTTTTAGCAGAGAAAACAATAAAAGAATCCAGGAAAAGT; listed as DNA, chemistry not given here; listed as Homo sapiens) | −2.442 | −2.494 | −2.265 | −2.234 | −2.076 | −2.368 | −1.927 | −2.484 | −1.685 | −2.485 | −2.495 | −2.249 | −2.41 | −2.401 | −2.489 | −2.453 | −2.486 | −2.489 | −2.481 | −2.234 | ncRNA array expression, patient 30: −1.529
